Experimental data as given in ChEMBL document CHEMBL1649262, “Nosocomial spread of colistin-only-sensitive sequence type 235 Pseudomonas aeruginosa isolates producing the extended-spectrum beta-lactamases GES-1 and GES-5 in Spain” (2009).
Converted amounts (≈) assume the structure as drawn.

Tests used:
Pseudomonas aeruginosa [1] = test: Antibacterial activity against Pseudomonas aeruginosa PAO1 by Etest method in presence of Tazobactam; assay type: functional
Pseudomonas aeruginosa [2] = test: Antibacterial activity against Pseudomonas aeruginosa PAO1 harboring plasmid pA1 by Etest method; assay type: functional
Pseudomonas aeruginosa [3] = test: Antibacterial activity against Pseudomonas aeruginosa PAO1 harboring plasmid pA1 by Etest method in presence of Tazobactam; assay type: functional
Pseudomonas aeruginosa [4] = test: Antibacterial activity against mexB and mexY expressing Pseudomonas aeruginosa PA-A3 harboring GyrA T83I, ParC S87L and IS1001 insertion at position 629 in OprD gene by Etest method; assay type: functional
Pseudomonas aeruginosa [5] = test: Antibacterial activity against mexB and mexY expressing Pseudomonas aeruginosa PA-A2 harboring GyrA T83I, ParC S87L and IS1001 insertion at position 629 in OprD gene by Etest method; assay type: functional
Pseudomonas aeruginosa [6] = test: Antibacterial activity against mexB and mexY expressing Pseudomonas aeruginosa PA-A1 harboring GyrA T83I, ParC S87L and IS1001 insertion at position 629 in OprD gene by Etest method in presence of Tazobactam; assay type: functional
Pseudomonas aeruginosa [7] = test: Antibacterial activity against Pseudomonas aeruginosa PAO1 by Etest method; assay type: functional
Pseudomonas aeruginosa [8] = test: Antibacterial activity against mexB and mexY expressing Pseudomonas aeruginosa PA-A2 harboring GyrA T83I, ParC S87L and IS1001 insertion at position 629 in OprD gene by Etest method in presence of Tazobactam; assay type: functional
Pseudomonas aeruginosa [9] = test: Antibacterial activity against mexB and mexY expressing Pseudomonas aeruginosa PA-A3 harboring GyrA T83I, ParC S87L and IS1001 insertion at position 629 in OprD gene by Etest method in presence of Tazobactam; assay type: functional
Pseudomonas aeruginosa [10] = test: Antibacterial activity against mexB and mexY expressing Pseudomonas aeruginosa PA-A1 harboring GyrA T83I, ParC S87L and IS1001 insertion at position 629 in OprD gene by Etest method; assay type: functional
Pseudomonas aeruginosa [11] = test: Antibacterial activity against Pseudomonas aeruginosa PAO1 harboring plasmid pA1 by Etest in presence of clavulanic acid

How did the MIC (Pseudomonas aeruginosa [1]) turn out when CCN1CCN(C(=O)N[C@@H](C(=O)N[C@@H]2C(=O)N3[C@@H]2SC(C)(C)[C@@H]3C(=O)O)c2ccccc2)C(=O)C1=O [PIPERACILLIN] was run?
Its MIC is 2 mg/L.

And the MIC (Pseudomonas aeruginosa [2])?
The MIC was greater than 256 mg/L.

And the MIC (Pseudomonas aeruginosa [3])?
The MIC was greater than 256 mg/L.

And the MIC (Pseudomonas aeruginosa [4])?
The MIC was greater than 256 mg/L.

What about the MIC (Pseudomonas aeruginosa [5]) of the same molecule?
The MIC was greater than 256 mg/L.

What about the MIC (Pseudomonas aeruginosa [6]) of the same molecule?
The MIC was greater than 256 mg/L.

And the MIC (Pseudomonas aeruginosa [7])?
The MIC was 3 mg/L (≈ 5.8 µM).

What about the MIC (Pseudomonas aeruginosa [8]) of the same molecule?
Its MIC is greater than 256 mg/L.

What about the MIC (Pseudomonas aeruginosa [9]) of the same molecule?
Its MIC is greater than 256 mg/L.

What about the MIC (Pseudomonas aeruginosa [10]) of the same molecule?
The MIC was greater than 256 mg/L.

With C[C@H]1[C@H](NC(=O)/C(=N\OC(C)(C)C(=O)O)c2csc(N)n2)C(=O)N1S(=O)(=O)O [AZTREONAM] as the molecule, how does the MIC (Pseudomonas aeruginosa [2]) read?
Its MIC is greater than 256 mg/L.

What about the MIC (Pseudomonas aeruginosa [4]) of the same molecule?
The MIC was greater than 256 mg/L.

What about the MIC (Pseudomonas aeruginosa [5]) of the same molecule?
Its MIC is greater than 256 mg/L.

What about the MIC (Pseudomonas aeruginosa [7]) of the same molecule?
The MIC was 1.5 mg/L (≈ 3.44 µM).

What about the MIC (Pseudomonas aeruginosa [10]) of the same molecule?
Its MIC is greater than 256 mg/L.

With O=C(O)c1cn(C2CC2)c2cc(N3CCNCC3)c(F)cc2c1=O [CIPROFLOXACIN] as the molecule, how does the MIC (Pseudomonas aeruginosa [2]) read?
The MIC was 0.064 mg/L (≈ 0.193 µM).

And the MIC (Pseudomonas aeruginosa [4])?
Its MIC is greater than 32 mg/L.

What about the MIC (Pseudomonas aeruginosa [5]) of the same molecule?
The MIC was greater than 32 mg/L.

What about the MIC (Pseudomonas aeruginosa [10]) of the same molecule?
The MIC was greater than 32 mg/L.

How did the MIC (Pseudomonas aeruginosa [2]) turn out when NCC[C@H](O)C(=O)N[C@@H]1C[C@H](N)[C@@H](O[C@H]2O[C@H](CN)[C@@H](O)[C@H](O)[C@H]2O)[C@H](O)[C@H]1O[C@H]1O[C@H](CO)[C@@H](O)[C@H](N)[C@H]1O [AMIKACIN] was run?
Its MIC is greater than 32 mg/L.

And the MIC (Pseudomonas aeruginosa [4])?
The MIC was greater than 256 mg/L.

And the MIC (Pseudomonas aeruginosa [5])?
The MIC was greater than 256 mg/L.

What about the MIC (Pseudomonas aeruginosa [7]) of the same molecule?
The MIC was 4 mg/L (≈ 6.83 µM).

What about the MIC (Pseudomonas aeruginosa [10]) of the same molecule?
Its MIC is greater than 256 mg/L.

For C[C@@H](O)[C@H]1C(=O)N2C(C(=O)O)=C(SCCNC=N)C[C@H]12 [IMIPENEM ANHYDROUS], which MIC (Pseudomonas aeruginosa [2]) is on record?
The MIC was 8 mg/L (≈ 26.7 µM).

And the MIC (Pseudomonas aeruginosa [4])?
The MIC was greater than 32 mg/L.

What about the MIC (Pseudomonas aeruginosa [5]) of the same molecule?
The MIC was greater than 32 mg/L.

What about the MIC (Pseudomonas aeruginosa [7]) of the same molecule?
Its MIC is 1 mg/L (≈ 3.34 µM).

And the MIC (Pseudomonas aeruginosa [11])?
The MIC was 4 mg/L.

What about the MIC (Pseudomonas aeruginosa [10]) of the same molecule?
Its MIC is greater than 32 mg/L.

How did the MIC (Pseudomonas aeruginosa [4]) turn out when GENTAMICIN was run?
The MIC was greater than 256 mg/L.

What about the MIC (Pseudomonas aeruginosa [5]) of the same molecule?
The MIC was greater than 256 mg/L.

And the MIC (Pseudomonas aeruginosa [7])?
Its MIC is 2 mg/L.

And the MIC (Pseudomonas aeruginosa [10])?
The MIC was greater than 256 mg/L.

CC(C)(O/N=C(\C(=O)N[C@@H]1C(=O)N2C(C(=O)[O-])=C(C[n+]3ccccc3)CS[C@H]12)c1csc(N)n1)C(=O)O [CEFTAZIDIME] was tested. Which MIC (Pseudomonas aeruginosa [2]) did it give?
Its MIC is greater than 256 mg/L.

And the MIC (Pseudomonas aeruginosa [4])?
The MIC was greater than 256 mg/L.

And the MIC (Pseudomonas aeruginosa [5])?
Its MIC is greater than 256 mg/L.

And the MIC (Pseudomonas aeruginosa [7])?
Its MIC is 1 mg/L (≈ 1.83 µM).

And the MIC (Pseudomonas aeruginosa [10])?
Its MIC is greater than 256 mg/L.

How did the MIC (Pseudomonas aeruginosa [2]) turn out when NC[C@H]1O[C@H](O[C@H]2[C@H](O)[C@@H](O[C@H]3O[C@H](CO)[C@@H](O)[C@H](N)[C@H]3O)[C@H](N)C[C@@H]2N)[C@H](N)C[C@@H]1O [TOBRAMYCIN] was run?
The MIC was 16 mg/L (≈ 34.2 µM).

And the MIC (Pseudomonas aeruginosa [4])?
Its MIC is greater than 256 mg/L.

And the MIC (Pseudomonas aeruginosa [5])?
Its MIC is greater than 256 mg/L.

And the MIC (Pseudomonas aeruginosa [7])?
The MIC was 1 mg/L (≈ 2.14 µM).

And the MIC (Pseudomonas aeruginosa [10])?
The MIC was greater than 256 mg/L.

What does the source list for CO/N=C(\C(=O)N[C@@H]1C(=O)N2C(C(=O)[O-])=C(C[N+]3(C)CCCC3)CS[C@H]12)c1csc(N)n1 [CEFEPIME]?
MIC (Pseudomonas aeruginosa [2]): > 256 mg/L; MIC (Pseudomonas aeruginosa [4]): > 256 mg/L; MIC (Pseudomonas aeruginosa [5]): > 256 mg/L; MIC (Pseudomonas aeruginosa [10]): > 256 mg/L

With COLISTIN as the molecule, how does the MIC (Pseudomonas aeruginosa [2]) read?
The MIC was 1 mg/L.

And the MIC (Pseudomonas aeruginosa [4])?
Its MIC is 2 mg/L.

And the MIC (Pseudomonas aeruginosa [5])?
Its MIC is 2 mg/L.

What about the MIC (Pseudomonas aeruginosa [7]) of the same molecule?
Its MIC is 1 mg/L.

What about the MIC (Pseudomonas aeruginosa [10]) of the same molecule?
Its MIC is 2 mg/L.

C[C@@H](O)[C@H]1C(=O)N2C(C(=O)O)=C(S[C@@H]3CN[C@H](C(=O)N(C)C)C3)[C@H](C)[C@H]12 [MEROPENEM] was tested. Which MIC (Pseudomonas aeruginosa [2]) did it give?
Its MIC is greater than 32 mg/L.

What about the MIC (Pseudomonas aeruginosa [4]) of the same molecule?
The MIC was greater than 32 mg/L.

What about the MIC (Pseudomonas aeruginosa [5]) of the same molecule?
Its MIC is greater than 32 mg/L.

And the MIC (Pseudomonas aeruginosa [7])?
The MIC was 0.25 mg/L (≈ 0.652 µM).

What about the MIC (Pseudomonas aeruginosa [10]) of the same molecule?
The MIC was greater than 32 mg/L.
